Data as given in ChEMBL document CHEMBL1129108, “On the bioactive conformation of the gaba uptake inhibitor SK&F 89976-A” (Bioorg Med Chem Lett, 1996).
pIC50: −log10 of the molar value.

Columns and labels:
Type in all cases: functional
[1] = molecular target: T1, Sodium- and chloride-dependent GABA transporter 2 (Rattus norvegicus, UniProt P31646); assay: Compound was tested for its ability to inhibit uptake of [3H]- GABA by cloned rat GAT-2 transporte
T1 sequence (P31646 whole entry): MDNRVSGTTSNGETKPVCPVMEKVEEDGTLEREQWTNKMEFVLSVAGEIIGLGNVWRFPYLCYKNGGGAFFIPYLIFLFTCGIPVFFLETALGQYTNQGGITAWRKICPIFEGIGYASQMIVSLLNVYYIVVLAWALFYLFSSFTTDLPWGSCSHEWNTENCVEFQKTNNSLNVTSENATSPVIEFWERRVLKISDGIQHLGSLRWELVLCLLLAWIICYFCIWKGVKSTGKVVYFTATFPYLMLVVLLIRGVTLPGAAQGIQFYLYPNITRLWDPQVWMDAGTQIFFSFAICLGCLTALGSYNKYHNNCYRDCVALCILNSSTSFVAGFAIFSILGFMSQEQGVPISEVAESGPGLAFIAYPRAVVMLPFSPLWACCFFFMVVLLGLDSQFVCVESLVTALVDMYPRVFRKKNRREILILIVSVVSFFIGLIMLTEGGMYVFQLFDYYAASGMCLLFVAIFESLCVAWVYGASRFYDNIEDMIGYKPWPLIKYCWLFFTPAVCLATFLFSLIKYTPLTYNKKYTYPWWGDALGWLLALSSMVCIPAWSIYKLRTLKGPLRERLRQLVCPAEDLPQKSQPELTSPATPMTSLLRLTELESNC

[2] = molecular target: Sodium- and chloride-dependent GABA transporter 1 (Homo sapiens, UniProt P30531); assay: Compound was tested for its ability to inhibit uptake of [3H]- GABA by cloned human GAT-1 transporter
[3] = molecular target: T2, Sodium- and chloride-dependent betaine transporter (Homo sapiens, UniProt P48065); assay: Compound was tested for its ability to inhibit uptake of [3H]- GABA by cloned human BGT-1 transporter
T2 sequence (P48065 whole entry): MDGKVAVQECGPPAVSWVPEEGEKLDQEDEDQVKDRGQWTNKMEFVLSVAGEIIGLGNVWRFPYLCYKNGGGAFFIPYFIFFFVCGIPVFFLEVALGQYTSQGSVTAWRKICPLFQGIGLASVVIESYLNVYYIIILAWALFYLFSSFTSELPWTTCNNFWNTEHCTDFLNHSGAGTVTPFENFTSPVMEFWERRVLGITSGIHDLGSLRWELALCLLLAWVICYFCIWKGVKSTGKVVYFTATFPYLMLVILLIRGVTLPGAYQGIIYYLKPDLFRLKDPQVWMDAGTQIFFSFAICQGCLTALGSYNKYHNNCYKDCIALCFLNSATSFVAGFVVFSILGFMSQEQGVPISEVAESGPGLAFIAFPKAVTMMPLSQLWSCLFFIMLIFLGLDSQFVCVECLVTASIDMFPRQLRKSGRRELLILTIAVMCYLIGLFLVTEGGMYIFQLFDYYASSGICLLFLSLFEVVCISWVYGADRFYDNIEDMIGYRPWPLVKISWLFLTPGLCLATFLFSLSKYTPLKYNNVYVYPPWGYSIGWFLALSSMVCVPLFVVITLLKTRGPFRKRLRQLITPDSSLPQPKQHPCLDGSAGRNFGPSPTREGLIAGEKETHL

[4] = molecular target: T3, Sodium- and chloride-dependent GABA transporter 3 (Homo sapiens, UniProt P48066); assay: Compound was tested for its ability to inhibit uptake of [3H]- GABA by cloned human GAT-3 transporter
T3 sequence (P48066 whole entry): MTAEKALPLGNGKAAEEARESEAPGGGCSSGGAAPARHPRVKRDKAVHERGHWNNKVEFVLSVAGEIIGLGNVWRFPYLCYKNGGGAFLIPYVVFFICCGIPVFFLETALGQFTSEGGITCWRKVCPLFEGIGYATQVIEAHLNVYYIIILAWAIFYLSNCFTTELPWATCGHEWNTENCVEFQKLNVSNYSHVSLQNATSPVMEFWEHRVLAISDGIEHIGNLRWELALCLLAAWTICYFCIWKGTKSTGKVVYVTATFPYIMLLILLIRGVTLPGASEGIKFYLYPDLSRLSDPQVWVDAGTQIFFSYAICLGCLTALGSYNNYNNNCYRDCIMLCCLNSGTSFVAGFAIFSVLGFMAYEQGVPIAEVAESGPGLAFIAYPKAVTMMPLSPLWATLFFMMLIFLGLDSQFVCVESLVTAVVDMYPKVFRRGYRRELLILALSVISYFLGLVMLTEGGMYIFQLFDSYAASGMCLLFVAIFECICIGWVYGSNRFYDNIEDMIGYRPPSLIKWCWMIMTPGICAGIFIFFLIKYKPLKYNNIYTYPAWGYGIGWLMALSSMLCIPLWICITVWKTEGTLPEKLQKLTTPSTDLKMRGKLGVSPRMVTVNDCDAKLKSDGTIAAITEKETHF

Chain of Sodium- and chloride-dependent GABA transporter 1 (P30531 whole entry): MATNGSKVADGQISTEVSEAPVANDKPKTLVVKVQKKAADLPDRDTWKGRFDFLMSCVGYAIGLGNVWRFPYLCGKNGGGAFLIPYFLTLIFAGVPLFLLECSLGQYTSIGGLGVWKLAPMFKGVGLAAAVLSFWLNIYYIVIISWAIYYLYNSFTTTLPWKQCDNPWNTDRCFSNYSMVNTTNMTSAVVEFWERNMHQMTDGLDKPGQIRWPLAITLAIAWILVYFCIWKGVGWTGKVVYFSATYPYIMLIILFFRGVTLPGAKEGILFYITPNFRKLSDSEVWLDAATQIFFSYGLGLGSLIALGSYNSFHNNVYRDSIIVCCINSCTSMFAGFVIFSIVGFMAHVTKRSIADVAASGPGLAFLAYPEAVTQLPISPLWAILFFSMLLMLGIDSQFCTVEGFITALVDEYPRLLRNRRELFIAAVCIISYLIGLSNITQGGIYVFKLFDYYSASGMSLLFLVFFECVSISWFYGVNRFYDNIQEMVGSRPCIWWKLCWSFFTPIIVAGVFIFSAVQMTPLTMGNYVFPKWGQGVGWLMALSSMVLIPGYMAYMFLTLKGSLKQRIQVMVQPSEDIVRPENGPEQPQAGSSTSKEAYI

| pIC50 [1] | pIC50 [2] | pIC50 [3] | pIC50 [4] | SMILES |
| --- | --- | --- | --- | --- |
| 3.32 | 3.20 | 2.54 | 2.69 | O=C(O)[C@@H]1CCC2C[C@H](C(c3ccccc3)c3ccccc3)CCN2C1 (stereo partly specified) |
| 3.12 | 3.09 | 3.47 | 3.06 | O=C(O)[C@H]1CCC2CC(=C(c3ccccc3)c3ccccc3)CCN2C1 (stereo partly specified) |
| 3.09 | 3.57 | 3.36 | 2.49 | O=C(O)[C@@H]1CCC2CC(=C(c3ccccc3)c3ccccc3)CCN2C1 (stereo partly specified) |
| 3.17 | 3.57 | 3.09 | 3.11 | O=C(O)[C@H]1CCC2C[C@H](C(c3ccccc3)c3ccccc3)CCN2C1 (stereo partly specified) |
